Assay results as given in paper PMC7038240 (Antimicrobial Agents and Chemotherapy, 2020).
Like-named read-outs stand apart in the source and are kept apart here.

How the values were obtained:
Type in all cases: cell-based
[1] = tested on: M. morgannii; assay: organism not typed; settings: strain 769909; OXA-48
Excerpt: (§1) The antibacterial activity of cefepime-taniborbactam was compared to that of ceftazidime-avibactam, ceftolozane-tazobactam, and cefepime-tazobactam against a diverse panel of Enterobacterales and P. aeruginosa clinical isolates with defined β-lactamase subtypes (see Table S1 in the supplemental material). IMP-producing strains were excluded, as none of the BLI-protected cephalosporins inhibited IMP sufficiently to provide a clinically relevant rescue of the partner β-lactam, a characteristic also shared by approved BLI-protected carbapenems (meropenem-vaborbactam and imipenem-relebactam). […] The antibacterial activity of the cephalosporins alone was included to ascertain the level of potentiation by the partnered BLI. BLIs were tested at a fixed concentration of 4 μg/ml in all combinations except cefepime-tazobactam, where tazobactam was fixed at a concentration of 8 μg/ml ([38]). The collection comprised 143 clinical isolates collected from 2005 and 2018.
(§2) The in vitro antibacterial activity of the β-lactams alone or in combination with the BLIs was determined in cation-adjusted Mueller-Hinton broth (CAMHB) microdilution assays according to CLSI recommendations ([51]). […]. The inocula for the broth microdilution assays were prepared by the broth culture method ([51]). […]

[2] = tested on: C. freundii; assay: microbe, parasite or virus in culture; settings: Citrobacter freundii
Excerpt: as §1, §2

[3] = tested on: K. aerogenes; assay: microbe, parasite or virus in culture; settings: Klebsiella aerogenes
Excerpt: as §1, §2

[4] = tested on: S. paratyphi; assay: microbe, parasite or virus in culture; settings: Salmonella enterica, strain 527, AmpC/TEM-1
Excerpt: as §1, §2

[5] = tested on: P. aeruginosa; assay: microbe, parasite or virus in culture; settings: Pseudomonas aeruginosa, read-out: MIC
Excerpt: as §1, §2

[6] = tested on: K. pneumoniae; assay: microbe, parasite or virus in culture; settings: Klebsiella pneumoniae, read-out: MIC
Excerpt: as §1, §2

[7] = tested on: S. typhi; assay: microbe, parasite or virus in culture; settings: Salmonella enterica, strain 26A, AmpC/TEM-1
Excerpt: as §1, §2

[8] = tested on: K. oxytoca; assay: microbe, parasite or virus in culture; settings: Klebsiella oxytoca, read-out: MIC
Excerpt: as §1, §2

[9] = tested on: E. coli; assay: microbe, parasite or virus in culture; settings: Escherichia coli, read-out: MIC
Excerpt: as §1, §2

[10] = tested on: S. marcescens; assay: microbe, parasite or virus in culture; settings: Serratia marcescens
Excerpt: as §1, §2

## Cn1c(N)c(NC(=O)NCCN)c[n+]1CC1=C(C(=O)O)N2C(=O)[C@@H](NC(=O)/C(=N\OC(C)(C)C(=O)[O-])c3nsc(N)n3)[C@H]2SC1 [TOL]
[1]
  MIC: 8 µg/mL
[2]; strain 134390, AmpC/TEM-1
  MIC: 8 µg/mL
[2]; strain 241181, AmpC/TEM-163
  MIC: 16 µg/mL
[3]; strain 73546, AmpC
  MIC: 4 µg/mL
[3]; strain 110099, AmpC/SHV-12
  MIC: 64 µg/mL
[3]; strain 111707, AmpC/TEM-1
  MIC: 4 µg/mL
[4]
  MIC: 32 µg/mL
[5]; ATCC27853, strain ATCC 27853, W.T.
  MIC: 1 µg/mL
[5]; strain 10.257, PDC-50
  MIC: 16 µg/mL
[5]; strain 11.516, PDC-79
  MIC: 64 µg/mL
[5]; strain 11.698, PDC-87
  MIC: 32 µg/mL
[5]; strain 11.813, PDC-91
  MIC: 8 µg/mL
[5]; strain 13.1716, PDC-74
  MIC: 128 µg/mL
[5]; strain 13.1717, PDC-74
  MIC: 64 µg/mL
[5]; strain 13.1737, PDC-80
  MIC: 128 µg/mL
[5]; strain 13.1755, PDC-86
  MIC: 128 µg/mL
[5]; strain 13.1760, PDC-77
  MIC: 32 µg/mL
[5]; strain 13.1775, PDC-87
  MIC: 16 µg/mL
[5]; strain 247.3D, VIM-2
  MIC: ≥ 256 µg/mL
[5]; strain 1129, PDC
  MIC: 1 µg/mL
[5]; strain 3615, PDC/TEM-1
  MIC: 4 µg/mL
[5]; strain 5671, VIM-1
  MIC: 64 µg/mL
[5]; strain 8273, PDC/TEM-1
  MIC: 1 µg/mL
[5]; strain 164951, W.T.
  MIC: 1 µg/mL
[5]; strain 377860, W.T.
  MIC: 1 µg/mL
[5]; strain 384743, PDC/TEM-1
  MIC: 16 µg/mL
[5]; strain 1013996, KPC-2
  MIC: 16 µg/mL
[5]; strain 1071703, GES-6
  MIC: 32 µg/mL
[5]; strain 1113755, GES-5
  MIC: ≥ 256 µg/mL
[5]; strain 1138223, GES-19
  MIC: ≥ 256 µg/mL
[5]; strain 1138337, GES-19
  MIC: ≥ 256 µg/mL
[5]; strain 1258509, GES-6
  MIC: 64 µg/mL
[5]; strain 1275655, GES-20
  MIC: ≥ 256 µg/mL
[5]; strain 1300089, GES-19
  MIC: ≥ 256 µg/mL
[5]; strain 1313666, KPC-2
  MIC: 32 µg/mL
[5]; strain CDC-0090, KPC
  MIC: 32 µg/mL
[5]; strain PA2, W.T.
  MIC: 2 µg/mL
[5]; strain PAA1-9G1, GES-5
  MIC: ≥ 256 µg/mL
[5]; strain PAA1-9G2, GES-5
  MIC: ≥ 256 µg/mL
[5]; strain PS-12, VIM-2
  MIC: ≥ 256 µg/mL
[5]; strain PS-32, VIM-2
  MIC: 128 µg/mL
[5]; strain Paeβ-04, 100-fold ↑ PDC-2/30% OprD/5.6x ↑ABM
  MIC: 2 µg/mL
[5]; strain Paeβ-10, 67-fold ↑ PDC-2/0.1% OprD/5.7x↑ABM
  MIC: 2 µg/mL
[5]; strain Paeβ-15, 310-fold ↑ PDC-2/10% OprD/4.4x↑XYM
  MIC: 4 µg/mL
[5]; strain Paeβ-17, 62-fold ↑PDC-3/30% OprD/10.2x and 9.9x ↑XYM and CDJ
  MIC: 2 µg/mL
[5]; strain Paeβ-18, 600-fold ↑ PDC-3/<0.01% OprD/3.9x and 5.6x ↑ABM and XYM
  MIC: 16 µg/mL
[5]; strain Paeβ-21, 200-fold ↑ PDC-4/10% OprD/13.5x ↑XYM
  MIC: 2 µg/mL
[5]; strain Ps296, VIM-2
  MIC: ≥ 256 µg/mL
[6]; strain 6299, OXA-163
  MIC: ≥ 256 µg/mL
[6]; strain 137052, SHV-11/KPC-3/TEM-1
  MIC: 64 µg/mL
[6]; strain 178279, SHV-12/TEM-1/AmpC
  MIC: 64 µg/mL
[6]; strain 196477, AmpC
  MIC: ≥ 256 µg/mL
[6]; strain 212027, AmpC/FOX-5/TEM-1
  MIC: 8 µg/mL
[6]; strain 515746, OXA-48
  MIC: 128 µg/mL
[6]; strain 664438, OXA-48
  MIC: 128 µg/mL
[6]; strain 664439, OXA-48
  MIC: 128 µg/mL
[6]; strain 722870, OXA-48
  MIC: 64 µg/mL
[6]; strain 752334, OXA-48
  MIC: ≥ 256 µg/mL
[6]; strain 769972, OXA-48
  MIC: 128 µg/mL
[6]; strain 787422, OXA-48
  MIC: 64 µg/mL
[6]; strain 845661, KPC
  MIC: ≥ 256 µg/mL
[6]; strain 847204, KPC
  MIC: 64 µg/mL
[6]; strain 848562, KPC
  MIC: ≥ 256 µg/mL
[6]; strain 848600, KPC
  MIC: ≥ 256 µg/mL
[6]; strain 848828, KPC
  MIC: 128 µg/mL
[6]; strain 849170, KPC
  MIC: 128 µg/mL
[6]; strain 856819, SHV-11/VIM-1
  MIC: ≥ 256 µg/mL
[6]; strain 864085, KPC
  MIC: ≥ 256 µg/mL
[6]; strain 871489, KPC
  MIC: ≥ 256 µg/mL
[6]; strain 873460, SHV-30/CTX-M-15
  MIC: 128 µg/mL
[6]; strain 874328, SHV-11/CTX-M-15/NDM-1
  MIC: ≥ 256 µg/mL
[6]; strain 882752, SHV-11/TEM-1/KPC-3
  MIC: 128 µg/mL
[6]; strain 882956, SHV-31/DHA-1/VIM-1
  MIC: ≥ 256 µg/mL
[6]; strain 884679, KPC
  MIC: 64 µg/mL
[6]; strain 890066, SHV-33/TEM-33/CTX-M-15/IMP-1
  MIC: ≥ 256 µg/mL
[6]; strain 892694, SHV-12/TEM-1/CTX-M-15/OXA-48/ACT
  MIC: ≥ 256 µg/mL
[6]; strain 919877, SHV-OSBL/VIM-1
  MIC: ≥ 256 µg/mL
[6]; strain 1104864, SHV-OSBL(b)/VIM-1
  MIC: ≥ 256 µg/mL
[6]; strain 1104866, SHV-OSBL(b)/VIM-1
  MIC: ≥ 256 µg/mL
[6]; strain 1280442, SHV-OSBL(b)/VIM-1
  MIC: ≥ 256 µg/mL
[6]; strain CDC-0003, KPC
  MIC: 128 µg/mL
[6]; strain CDC-0049, NDM
  MIC: ≥ 256 µg/mL
[6]; strain CDC-0117, KPC-3
  MIC: 128 µg/mL
[6]; strain CDC-0125, KPC-3
  MIC: 128 µg/mL
[6]; strain CDC-0139, NDM-1
  MIC: ≥ 256 µg/mL
[6]; strain CDC-0145, NDM
  MIC: ≥ 256 µg/mL
[6]; strain CDC-0148, NDM
  MIC: ≥ 256 µg/mL
[6]; strain CDC-0152, NDM
  MIC: ≥ 256 µg/mL
[6]; strain DOV, OXA-48
  MIC: 128 µg/mL
[6]; strain ESBL8 #1, TEM-1/SHV-12
  MIC: 32 µg/mL
[6]; strain ESBL 10, SHV-12/TEM-1
  MIC: 32 µg/mL
[6]; strain KIRK, OXA-162
  MIC: 128 µg/mL
[6]; strain KP 3, SHV-1/TEM-1
  MIC: ≥ 256 µg/mL
[6]; strain KPN 508, SHV-7/TEM-1
  MIC: 32 µg/mL
[6]; strain SI-C05, OXA-48
  MIC: ≥ 256 µg/mL
[6]; strain SI-F100, SHV-5/TEM-1/CMY-2
  MIC: 16 µg/mL
[6]; strain SI-KP NO30, TEM-26b/SHV-60/SHV-26
  MIC: 64 µg/mL
[7]
  MIC: 16 µg/mL
[8]; strain 134943, CMY-2/TEM-1
  MIC: 8 µg/mL
[8]; strain 847537, KPC
  MIC: ≥ 256 µg/mL
[9]; strain 469, AmpC/SHV-12/TEM-1
  MIC: 8 µg/mL
[9]; strain 1924, TEM-12
  MIC: 16 µg/mL
[9]; strain 664507, OXA-48
  MIC: 64 µg/mL
[9]; strain 664516, OXA-48
  MIC: 64 µg/mL
[9]; strain 664520, OXA-48
  MIC: 64 µg/mL
[9]; strain 664522, OXA-48
  MIC: 128 µg/mL
[9]; strain 664523, OXA-48
  MIC: 64 µg/mL
[9]; strain 849121, KPC
  MIC: 32 µg/mL
[9]; strain 873435, CTX-M-15
  MIC: 128 µg/mL
[9]; strain 875627, CTX-M-27
  MIC: 16 µg/mL
[9]; strain 878358, TEM-1/CTX-M
  MIC: 64 µg/mL
[9]; strain 890500, TEM-1/CTX-M-14
  MIC: 8 µg/mL
[9]; strain 1275635, VIM-23
  MIC: ≥ 256 µg/mL
[9]; strain 1459453, NDM-7
  MIC: ≥ 256 µg/mL
[9]; strain CDC-0001, KPC
  MIC: 64 µg/mL
[9]; strain CDC-0069, NDM
  MIC: ≥ 256 µg/mL
[9]; strain CDC-0149, NDM
  MIC: ≥ 256 µg/mL
[9]; strain EC1552 2A, AmpC/CMY-2/TEM-1, CTX-M-15
  MIC: 16 µg/mL
[9]; strain ESBL 5, CTX-M-15/TEM-1
  MIC: 128 µg/mL
[9]; strain SI-LP377, CTX-M-2
  MIC: 32 µg/mL
[9]; strain SI-M004, SHV-2/GES-12
  MIC: 64 µg/mL
[9]; strain SI-PO26, AmpC/CMY-2/TEM-1
  MIC: 8 µg/mL
[9]; strain SI-V502, TEM-29/CTX-M-15
  MIC: 8 µg/mL
[9]; strain VER, OXA-48
  MIC: 2 µg/mL
[10]; strain 134434, AmpC/SHV-12/TEM-1
  MIC: 64 µg/mL
[10]; strain 192476, AmpC/TEM-1/SHV-5
  MIC: 64 µg/mL
[10]; strain 192478, AmpC/SHV-12/TEM-1
  MIC: 64 µg/mL
[10]; strain 218073, AmpC/SHV-7/TEM-1
  MIC: 64 µg/mL
